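Cultured in 96-well plates, cells were exposed to test compound for 48 hours across five concentrations. The concentration for full growth arrest is given as TGI.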
Key:
Assay in all cases: NCI tumour cell line growth inhibition, 48 h
SR leukemia = system: SR leukemia
NCI-H460 lung = system: NCI-H460 lung
OVCAR-3 ovarian = system: OVCAR-3 ovarian
CAKI-1 renal = system: CAKI-1 renal
NCI-H226 lung = system: NCI-H226 lung
EKVX NSCLC = system: EKVX NSCLC
MOLT-4 leukemia = system: MOLT-4 leukemia
HCT-116 colon = system: HCT-116 colon
M14 melanoma = system: M14 melanoma
A498 renal = system: A498 renal
K-562 leukemia = system: K-562 leukemia
HOP-62 NSCLC = system: HOP-62 NSCLC
SN12C renal = system: SN12C renal
U251 CNS = system: U251 CNS
HCC-2998 colon = system: HCC-2998 colon
LOX IMVI melanoma = system: LOX IMVI melanoma
HOP-18 NSCLC = system: HOP-18 NSCLC
UACC-62 melanoma = system: UACC-62 melanoma
HOP-92 NSCLC = system: HOP-92 NSCLC
RPMI-8226 leukemia = system: RPMI-8226 leukemia
A549 NSCLC = system: A549 NSCLC
RXF 393 renal = system: RXF 393 renal
LXFL 529 NSCLC = system: LXFL 529 NSCLC
SF-268 CNS = system: SF-268 CNS
HT29 colon = system: HT29 colon
SW-620 colon = system: SW-620 colon
HCT-15 colon = system: HCT-15 colon
HL-60(TB) leukemia = system: HL-60(TB) leukemia
KM20L2 colon = system: KM20L2 colon
SF-539 CNS = system: SF-539 CNS
OVCAR-8 ovarian = system: OVCAR-8 ovarian
IGROV1 ovarian = system: IGROV1 ovarian
KM12 colon = system: KM12 colon
CCRF-CEM leukemia = system: CCRF-CEM leukemia
SNB-19 CNS = system: SNB-19 CNS
MALME-3M melanoma = system: MALME-3M melanoma
SF-295 CNS = system: SF-295 CNS
M19-MEL melanoma = system: M19-MEL melanoma
XF 498 CNS = system: XF 498 CNS
SNB-75 CNS = system: SNB-75 CNS
COLO 205 colon = system: COLO 205 colon
NCI-H522 lung = system: NCI-H522 lung
RXF-631 renal = system: RXF-631 renal
NCI-H23 lung = system: NCI-H23 lung
SNB-78 CNS = system: SNB-78 CNS
DLD-1 colon = system: DLD-1 colon
UO-31 renal = system: UO-31 renal
UACC-257 melanoma = system: UACC-257 melanoma
ACHN renal = system: ACHN renal
OVCAR-4 ovarian = system: OVCAR-4 ovarian
OVCAR-5 ovarian = system: OVCAR-5 ovarian
SK-MEL-28 melanoma = system: SK-MEL-28 melanoma
TK-10 renal = system: TK-10 renal
SK-OV-3 ovarian = system: SK-OV-3 ovarian
DMS 114 small cell lung = system: DMS 114 small cell lung
786-0 renal = system: 786-0 renal
DMS 273 small cell lung = system: DMS 273 small cell lung

COc1ccc(-c2nc(N)nc(-c3cc(C)ccc3O)c2Cl)cc1
TGI (SR leukemia): > 100 µM | TGI (NCI-H460 lung): > 100 µM | TGI (OVCAR-3 ovarian): 89.8 µM | TGI (CAKI-1 renal): > 100 µM | TGI (NCI-H226 lung): > 100 µM | TGI (EKVX NSCLC): > 100 µM | TGI (MOLT-4 leukemia): > 100 µM | TGI (HCT-116 colon): > 100 µM | TGI (M14 melanoma): > 100 µM | TGI (A498 renal): > 100 µM | TGI (K-562 leukemia): > 100 µM | TGI (HOP-62 NSCLC): > 100 µM | TGI (SN12C renal): > 100 µM | TGI (U251 CNS): > 100 µM | TGI (HCC-2998 colon): > 100 µM | TGI (LOX IMVI melanoma): > 100 µM | TGI (HOP-18 NSCLC): > 100 µM | TGI (UACC-62 melanoma): > 100 µM | TGI (HOP-92 NSCLC): > 100 µM | TGI (RPMI-8226 leukemia): > 100 µM | TGI (A549 NSCLC): > 100 µM | TGI (RXF 393 renal): 99.7 µM | TGI (LXFL 529 NSCLC): > 100 µM | TGI (SF-268 CNS): > 100 µM | TGI (HT29 colon): > 100 µM | TGI (SW-620 colon): > 100 µM | TGI (HCT-15 colon): > 100 µM | TGI (HL-60(TB) leukemia): > 100 µM | TGI (KM20L2 colon): > 100 µM | TGI (SF-539 CNS): > 100 µM | TGI (OVCAR-8 ovarian): > 100 µM | TGI (IGROV1 ovarian): > 100 µM | TGI (KM12 colon): > 100 µM | TGI (CCRF-CEM leukemia): > 100 µM | TGI (SNB-19 CNS): > 100 µM | TGI (MALME-3M melanoma): > 100 µM | TGI (SF-295 CNS): > 100 µM | TGI (M19-MEL melanoma): > 100 µM | TGI (XF 498 CNS): 64.3 µM | TGI (SNB-75 CNS): 63.9 µM | TGI (COLO 205 colon): > 100 µM | TGI (NCI-H522 lung): > 100 µM | TGI (RXF-631 renal): > 100 µM | TGI (NCI-H23 lung): > 100 µM | TGI (SNB-78 CNS): 81.9 µM | TGI (DLD-1 colon): > 100 µM | TGI (UO-31 renal): > 100 µM | TGI (UACC-257 melanoma): > 100 µM | TGI (ACHN renal): > 100 µM | TGI (OVCAR-4 ovarian): 53.3 µM | TGI (OVCAR-5 ovarian): > 100 µM | TGI (SK-MEL-28 melanoma): > 100 µM | TGI (TK-10 renal): 86.4 µM | TGI (SK-OV-3 ovarian): 94.2 µM | TGI (DMS 114 small cell lung): > 100 µM | TGI (786-0 renal): > 100 µM | TGI (DMS 273 small cell lung): > 100 µM
